One experiment addresses human CB2 receptors (Homo sapiens (Human), UniProt P34972). Nature of the experiment: cAMP assay, CHO cells expressing human CB2 receptors. In kind it is cell-based. The note with it: functional cAMP assay, CHO cells expressing human CB2; read-out: EC50 CB2 human. As for the experimental part: (§1) CHO cells expressing human CB1 or CB2 receptors are seeded 17-24 hours prior to the experiment 50.000 cells per well in a black 96 well plate with flat clear bottom (Corning Costar #3904) in DMEM (Invitrogen No. 31331), 1×HT supplement, with 10% fetal calf serum and incubated at 5% CO2 and 37° C. in a humidified incubator. The growth medium was exchanged with Krebs Ringer Bicarbonate buffer with 1 mM IBMX and incubated at 30° C. for 30 min. Compounds were added to a final assay volume of 100 μl and incubated for 30 min at 30° C. […] The time-resolved energy transfer is measured by a TRF reader (Evotec Technologies GmbH), equipped with a ND:YAG laser as excitation source. The plate is measured twice with the excitation at 355 nm and at the emission with a delay of 100 ns and a gate of 100 ns, total exposure time 10 s at 730 (bandwidth30 nm) or 645 nm (bandwidth 75 nm), respectively. The FRET signal is calculated as follows: FRET=T730-Alexa730-P(T645-B645) with P=Ru730-B730/Ru645-B645, where T730 is the test well measured at 730 nM, T645 is the test well measured at 645 nm, B730 and B645 are the buffer controls at 730 nm and 645 nm, respectively. cAMP content is determined from the function of a standard curve spanning from 10 μM to 0.13 nM cAMP.
(§2) EC50 values were determined using Activity Base analysis (ID Business Solution, Limited).

The target of a further experiment is human CB1 receptors (Homo sapiens (Human), UniProt P21554). As to the kind of experiment: cAMP assay, CHO cells expressing human CB1 receptors. In kind it is cell-based. To be noted: functional cAMP assay, CHO cells expressing human CB1; read-out: EC50 CB1 human. The method, then: as §1, §2
human CB1 receptors, sequence (P21554 whole entry): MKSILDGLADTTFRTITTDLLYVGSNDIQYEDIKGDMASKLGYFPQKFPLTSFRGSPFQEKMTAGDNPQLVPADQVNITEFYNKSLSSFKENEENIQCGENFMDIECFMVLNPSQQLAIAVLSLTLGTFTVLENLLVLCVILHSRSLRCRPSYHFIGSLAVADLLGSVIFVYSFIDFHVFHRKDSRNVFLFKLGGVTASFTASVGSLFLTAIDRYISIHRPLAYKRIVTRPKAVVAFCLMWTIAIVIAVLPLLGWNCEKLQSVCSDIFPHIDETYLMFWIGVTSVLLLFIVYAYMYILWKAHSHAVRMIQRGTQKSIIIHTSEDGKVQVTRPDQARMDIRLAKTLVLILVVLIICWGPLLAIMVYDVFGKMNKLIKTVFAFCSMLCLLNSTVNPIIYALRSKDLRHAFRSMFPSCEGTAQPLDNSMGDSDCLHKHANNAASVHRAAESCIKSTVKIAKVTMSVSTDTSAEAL

Bounds are passed on as bounds.

human CB2 receptors, sequence (P34972 whole entry): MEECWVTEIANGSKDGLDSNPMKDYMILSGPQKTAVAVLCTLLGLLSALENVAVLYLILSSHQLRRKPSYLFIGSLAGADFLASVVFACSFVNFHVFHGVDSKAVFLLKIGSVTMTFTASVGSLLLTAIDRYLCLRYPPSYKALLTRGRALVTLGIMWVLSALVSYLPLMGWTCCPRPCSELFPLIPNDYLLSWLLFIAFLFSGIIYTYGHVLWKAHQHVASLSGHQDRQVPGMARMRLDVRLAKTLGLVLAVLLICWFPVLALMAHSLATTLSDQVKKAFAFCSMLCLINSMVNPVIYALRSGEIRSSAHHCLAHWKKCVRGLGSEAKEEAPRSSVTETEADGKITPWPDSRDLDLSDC

`CC(C)c1noc(-c2cc(OCC(F)(F)F)c(C3CC3)cn2)n1` [Example 42, 5-[5-cyclopropyl-4-(2,2,2-trifluoroethoxy)pyridin-2-yl]-3-propan-2-yl-1,2,4-oxadiazole]: the EC50 at human CB2 receptors was 2.3 nM; on human CB1 receptors, greater than 10000 nM.

Consider `CC(C)(C)c1nc(-c2cc(OCC3CC3)c(S(C)(=O)=O)cn2)no1` [Example 43, 5-tert-butyl-3-[4-(cyclopropylmethoxy)-5-methylsulfonylpyridin-2-yl]-1,2,4-oxadiazole], for which the results for the EC50 at human CB2 receptors and at human CB1 receptors were 40.9 nM and greater than 10000 nM, respectively.

With `CC(C)c1nc(-c2cc(OCC(F)(F)F)c(N3CC(F)(F)C3)cn2)no1` [Example 45, 3-[5-(3,3-difluoroazetidin-1-yl)-4-(2,2,2-trifluoroethoxy)pyridin-2-yl]-5-propan-2-yl-1,2,4-oxadiazole], the EC50 was 77.8 nM on human CB2 receptors and greater than 10000 nM on human CB1 receptors.

As for `OC1(c2nc(-c3cc(OCC(F)(F)F)c(N4CC(F)(F)C4)cn3)no2)CC1` [Example 46, 1-[3-[5-(3,3-difluoroazetidin-1-yl)-4-(2,2,2-trifluoroethoxy)pyridin-2-yl]-1,2,4-oxadiazol-5-yl]cyclopropan-1-ol], the EC50 on human CB2 receptors was 180 nM; at human CB1 receptors, greater than 10000 nM.

In the case of `CC1(c2nc(-c3cc(OCC(F)(F)F)c(N4CC(F)(F)C4)cn3)no2)COC1` [Example 47, 3-[5-(3,3-difluoroazetidin-1-yl)-4-(2,2,2-trifluoroethoxy)pyridin-2-yl]-5-(3-methyloxetan-3-yl)-1,2,4-oxadiazole], the EC50 at human CB2 receptors is 166 nM; on human CB1 receptors, greater than 10000 nM.

With `C[C@H](Oc1cc(-c2noc(C(C)(C)C)n2)ncc1C1CC1)C(F)(F)F` [Example 48, 5-tert-butyl-3-[5-cyclopropyl-4-[(2S)-1,1,1-trifluoropropan-2-yl]oxypyridin-2-yl]-1,2,4-oxadiazole], the EC50 on human CB2 receptors was 19 nM; at human CB1 receptors it was greater than 10000 nM.

As to `C[C@@H](Oc1cc(-c2noc(C(C)(C)C)n2)ncc1C1CC1)C(F)(F)F` [Example 49, 5-tert-butyl-3-[5-cyclopropyl-4-[(2R)-1,1,1-trifluoropropan-2-yl]oxypyridin-2-yl]-1,2,4-oxadiazole], the EC50 at human CB2 receptors was 51.5 nM; at human CB1 receptors it was greater than 10000 nM.

Take `CC1(c2nc(-c3cc(OCC(F)(F)F)c(N4CC(F)(F)C4)cn3)no2)CC1` [Example 50, 3-[5-(3,3-difluoroazetidin-1-yl)-4-(2,2,2-trifluoroethoxy)pyridin-2-yl]-5-(1-methylcyclopropyl)-1,2,4-oxadiazole]: the EC50 at human CB2 receptors was 45.8 nM; at human CB1 receptors, greater than 10000 nM.

As to `C[C@@H](Oc1cc(-c2nc(C(C)(C)C)no2)ncc1C1CC1)C(F)(F)F` [Example 51, 3-tert-butyl-5-[5-cyclopropyl-4-[(2R)-1,1,1-trifluoropropan-2-yl]oxypyridin-2-yl]-1,2,4-oxadiazole], the EC50 was 61.8 nM at human CB2 receptors and greater than 10000 nM on human CB1 receptors.

On to `C[C@H](Oc1cc(-c2nc(C(C)(C)C)no2)ncc1C1CC1)C(F)(F)F` [Example 52, 3-tert-butyl-5-[5-cyclopropyl-4-[(2S)-1,1,1-trifluoropropan-2-yl]oxypyridin-2-yl]-1,2,4-oxadiazole], for which the values for the EC50 at human CB2 receptors and at human CB1 receptors were 13.1 nM and greater than 10000 nM, respectively.

As to `CC(C)(C)c1nc(-c2cc(OCc3ccc(F)cc3)c(C3CC3)cn2)no1` [Example 53, 5-tert-butyl-3-[5-cyclopropyl-4-[(4-fluorophenyl)methoxy]pyridin-2-yl]-1,2,4-oxadiazole], the EC50 at human CB2 receptors stood at 1.4 nM; on human CB1 receptors, 55.1 nM.

Consider `CC(C)(C)c1nc(-c2cc(OC3COC3)c(C3CC3)cn2)no1` [Example 54, 5-tert-butyl-3-[5-cyclopropyl-4-(oxetan-3-yloxy)pyridin-2-yl]-1,2,4-oxadiazole], for which the values for the EC50 at human CB2 receptors and at human CB1 receptors were 33.1 nM and greater than 10000 nM, respectively.

`CC1(COc2cc(-c3noc(C(C)(C)C)n3)ncc2C2CC2)COC1` [Example 55, 5-tert-butyl-3-[5-cyclopropyl-4-[(3-methyloxetan-3-yl)methoxy]pyridin-2-yl]-1,2,4-oxadiazole]: the EC50 at human CB2 receptors was 7.7 nM; on human CB1 receptors, greater than 10000 nM.

With `CC(C)(C)c1nc(-c2cc(OCC3CCCO3)c(C3CC3)cn2)no1` (stereo not drawn) [Example 56, 5-tert-butyl-3-[5-cyclopropyl-4-(oxolan-2-ylmethoxy)pyridin-2-yl]-1,2,4-oxadiazole], the EC50 at human CB2 receptors was 44.7 nM; on human CB1 receptors, greater than 10000 nM.

On to `CN1CCC[C@H]1COc1cc(-c2noc(C(C)(C)C)n2)ncc1C1CC1` [Example 57, 5-tert-butyl-3-[5-cyclopropyl-4-[[(2S)-1-methylpyrrolidin-2-yl]methoxy]pyridin-2-yl]-1,2,4-oxadiazole], for which the EC50 at human CB2 receptors was 13.4 nM; on human CB1 receptors it was greater than 10000 nM.

On to `CC(C)(C)c1nc(-c2cc(OCC3CCO3)c(C3CC3)cn2)no1` (stereo not drawn) [Example 58, 5-tert-butyl-3-[5-cyclopropyl-4-(oxetan-2-ylmethoxy)pyridin-2-yl]-1,2,4-oxadiazole], for which the EC50 on human CB2 receptors was 15.6 nM; on human CB1 receptors, greater than 10000 nM.

On to `CN1CCC(Oc2cc(-c3noc(C(C)(C)C)n3)ncc2C2CC2)C1` (stereo not drawn) [Example 59, 5-tert-butyl-3-[5-cyclopropyl-4-(1-methylpyrrolidin-3-yl)oxypyridin-2-yl]-1,2,4-oxadiazole], for which the values for the concentration for a half-maximal effect (EC50) on human CB2 receptors and on human CB1 receptors were 48.1 nM and greater than 10000 nM, respectively.

On to `NC1(c2nc(-c3cc(OCC4CC4)c(C4CC4)cn3)no2)COC1` [Example 60, 3-[3-[5-cyclopropyl-4-(cyclopropylmethoxy)pyridin-2-yl]-1,2,4-oxadiazol-5-yl]oxetan-3-amine], for which the concentration for a half-maximal effect (EC50) at human CB2 receptors was 448 nM; at human CB1 receptors, greater than 10000 nM.

For `CC(C)(C)c1nc(-c2cc(Oc3ccc(F)cc3)c(C3CC3)cn2)no1` [Example 61, 5-tert-butyl-3-[5-cyclopropyl-4-(4-fluorophenoxy)pyridin-2-yl]-1,2,4-oxadiazole], the EC50 on human CB2 receptors is 6.2 nM; at human CB1 receptors it was greater than 10000 nM.

For `CC(C)(C)c1nc(-c2cc(OC3CCOC3)c(C3CC3)cn2)no1` (stereo not drawn) [Example 62, 5-tert-butyl-3-[5-cyclopropyl-4-(oxolan-3-yloxy)pyridin-2-yl]-1,2,4-oxadiazole], the EC50 on human CB2 receptors is 17.8 nM; at human CB1 receptors, greater than 10000 nM.

Consider `CC(C)(C)c1nc(-c2cc(OC3CCOCC3)c(C3CC3)cn2)no1` [Example 63, 5-tert-butyl-3-[5-cyclopropyl-4-(oxan-4-yloxy)pyridin-2-yl]-1,2,4-oxadiazole], for which the EC50 at human CB2 receptors was 4.3 nM; on human CB1 receptors, greater than 10000 nM.

For `CC(C)(C)c1c[nH]c(-c2cc(OCC(F)(F)F)c(N3CC(F)(F)C3)cn2)n1` [Example 64, 2-(5-tert-butyl-1H-imidazol-2-yl)-5-(3,3-difluoroazetidin-1-yl)-4-(2,2,2-trifluoroethoxy)pyridine], the 50% effective concentration (EC50) at human CB2 receptors was 87.5 nM; at human CB1 receptors, greater than 10000 nM.

As for `CC(C)(C)c1cnc(-c2cc(OCC3CC3)c(C3CC3)cn2)o1` [Example 65, 5-tert-butyl-2-[5-cyclopropyl-4-(cyclopropylmethoxy)pyridin-2-yl]-1,3-oxazole], the EC50 was 1.7 nM at human CB2 receptors and 170 nM on human CB1 receptors.

For the compound `CC(C)C1(C)N=C(c2cc(OCC(F)(F)F)c(C3CC3)cn2)NC1=O` (stereo not drawn) [Example 66, 2-[5-cyclopropyl-4-(2,2,2-trifluoroethoxy)pyridin-2-yl]-4-methyl-4-propan-2-yl-1H-imidazol-5-one], the EC50 at human CB2 receptors was 9 nM; on human CB1 receptors, greater than 10000 nM.

The values above are taken from patent US10308659B2, “Pyridine derivatives” (Hoffmann-La Roche Inc., priority 2013, dated 2019).
